Reference: publication PMC5453399, “Microfluidic Mobility Shift Assay for Real-Time Analysis of Peptide N-Palmitoylation” (Slas Discovery, 2017)

Target: T1, Hhat (Homo sapiens, UniProt Q5VTY9)
T1 construct: Hhat-FLAG-His8 (C-terminal tags kept), stably expressed in HEK293a cells; DDM-solubilized membrane fraction P100(sol) enriched by Ni-NTA
Assay: microfluidic mobility shift assay, stopped
Type: biochemical

T1 sequence (Q5VTY9 whole entry): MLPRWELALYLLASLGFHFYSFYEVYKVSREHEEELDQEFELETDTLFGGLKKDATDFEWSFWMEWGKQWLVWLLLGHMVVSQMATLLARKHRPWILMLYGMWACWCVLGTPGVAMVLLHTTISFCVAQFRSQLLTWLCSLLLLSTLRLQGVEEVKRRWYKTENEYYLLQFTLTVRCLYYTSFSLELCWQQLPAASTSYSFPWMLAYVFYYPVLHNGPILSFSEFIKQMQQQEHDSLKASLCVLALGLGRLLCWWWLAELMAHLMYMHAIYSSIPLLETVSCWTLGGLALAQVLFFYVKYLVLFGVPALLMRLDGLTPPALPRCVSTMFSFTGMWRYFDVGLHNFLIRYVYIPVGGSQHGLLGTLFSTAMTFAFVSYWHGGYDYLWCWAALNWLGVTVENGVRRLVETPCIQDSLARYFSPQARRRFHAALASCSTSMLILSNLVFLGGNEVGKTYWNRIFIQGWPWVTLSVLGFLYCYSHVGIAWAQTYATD

IC50: 8.32 ± 3.69 µM
SMILES: CCC(C)CNCC(=O)N1CCc2sccc2C1c1cccc(C)c1 (stereo not shown) [RUSKI-101]
